Consider one compound from article PMC3578829, “A Small Molecule (Pluripotin) as a Tool for Studying Cancer Stem Cell Biology: Proof of Concept” (PLoS ONE, 2013).

Assay [1] has as its target RSK2 (Homo sapiens, UniProt P51812). Briefly: In vitro kinase inhibition assay (modified Nguyen et al.). The settings on record: RSK2 N-terminal domain; mean±SD, n = 5; concentration inhibiting 50% of control activity. Format: biochemical. As to the method:
The RSK2 in vitro kinase inhibition assay utilized was a modification of protocols established by Nguyen et al.. Additional protocols that confirmed the results depicted in Figure 4 and evaluated kinase inhibitory activity in a random selection of protein kinases (Table 3) were conducted at Reaction Biology Corporation (Malvern, PA). This was a miniaturized ^33P-based screening assay.

Assay [2] relates to HT29. Briefly: Limiting dilution tumorigenicity, s.c. xenograft without protein support. Set-up: key to Tumorigenicity: Y indicates increased tumor formation or increased time to appearance or both.; Y ^%: Y indicates increased tumor formation when Matrigel was co-injected. The assay is classed as in vivo, NOD.SCID mice. As to the method: (§1) Five day exposures were conducted.
(§2) Six week old female NOD.SCID mice were randomly assigned to each of 20 treatment arms (n = 5/group). Treated and control colon tumor lines were enzymatically harvested and counted prior to dilution in RPMI 1640 (at 10, 100, 1,000, 10,000 cells/inoculum) for subcutaneous injection into the axillary region using a volume of […]. Positive control groups were established such that tumor formation occurred in all mice in approximately one week thus confirming that all tumor lines studied were tumorigenic. Cell inocula for the positive control groups ranged from 1×10^6 to 2.5×10^6. Cell viability of the cell stocks was assessed by trypan blue exclusion prior to dilution for injection and was routinely found to be >95%. Tumor formation was monitored weekly using caliper measurements and the tumor mass was calculated as weight in mg = 1/2×(tumor length)×(tumor width)^2. All experiments were terminated at 120 days or when tumor weight exceeded 2000 mg for any individual mouse. In selected studies, tumor cells were resuspended in Matrigel (50% concentration, BD Biosciences) prior to injection.

Assay [3] has as its system COLO 205. The description is as above. Set-up: key to Tumorigenicity: Y indicates increased tumor formation or increased time to appearance or both.; Y ^%: Y indicates increased tumor formation when Matrigel was co-injected. The assay is classed as in vivo, NOD.SCID mice. As to the method:
as §1, §2

For assay [4], the system named is HT29. Kind of assay: Sphere formation assay (5% FBS). The assay is classed as cell-based. Set-up: key: Y indicates the presence of spheres following SC-1 treatment. As to the method:
(§3) The 7 colon tumor lines were seeded in […] tissue culture treated dishes (Falcon) at low density (62,500 cells/ml) in complete media containing 5% FBS one day prior to addition of 0.1 µM SC-1 (final cell concentration 31,250 cells/ml). Photomicrographs were prepared on day 1 and day 5 following compound treatment utilizing a Zeiss XM inverted microscope and CCD cooled-camera imaging system. Nonadherent spheres were defined as floating, circular structures with well defined borders. Occasionally, exceptionally large spheres re-adhered to the tissue culture surface. Aggregates of floating cells or grape-like clusters were not considered spheres.

Assay [5] relates to COLO 205. Kind of assay: Sphere formation assay (5% FBS). Format: cell-based. Set-up: key: Y indicates the presence of spheres following SC-1 treatment. As for the experimental part:
as §3

For assay [6], the system named is HCT-116. Kind of assay: Sphere formation assay (5% FBS). Set-up: key: Y indicates the presence of spheres following SC-1 treatment. Format: cell-based. As to the method:
as §3

The test system of assay [7] is RSK2. Kind of assay: Immunoblotting of RSK2 protein levels in COLO 205. Format: cell-based. The settings on record: 5 days of exposure to 0.1 µM SC-1. As for the experimental part:
Since SC-1 inhibited RSK2 kinase activity, we first determined if RSK2 protein levels were altered.
Standard protein electrophoretic techniques were followed using previously published protocols. For these studies, the colon lines were cultured for 5 days with and without treatments, harvested with trypsin (0.25% trypsin 0.5 mM EDTA, Invitrogen), counted and lysed with a whole cell lysis buffer (10 mM Tris, 1.0 mM EDTA, 50 mM NaCl, 0.5% deoxycholate, 0.5% NP-40, 0.5% SDS, 1.0 mM PMSF, and aprotonin and a cocktail of phosphatase and protease inhibitors). The whole cell lysate was heated to 100°C for 10 min and then fractionated (1000 g, 10 min, 4°C). Protein concentrations were measured with the Pierce BCA Protein Assay. Twenty to 40 µg of protein lysate per lane were loaded onto 10% SDS polyacrylamide gels (Ready-Gels, Biorad) with Laemmli buffer. For immunoblotting, the primary antibodies were diluted in Tween/Tris wash buffer (0.1 mM Tris-HCl pH 7.5, 2.5% Tween-20, 150 mM NaCl) and 5% BSA or nonfat dry milk and incubated overnight at 4°C. […] Pixel intensity of the imaged bands was measured using STORM (GE Amersham) and Image Quant Software. Normalization for loading was accomplished by reprobing with an anti-actin antibody, quantification of pixel intensity and data normalization.
Background: Immunoblotting shows a protein as a band on a membrane.

In assay [8] the test system is HCT-116. Briefly: Cell cycle analysis. The assay is classed as cell-based. The settings on record: harvested day 5. As for the experimental part:
Approximately 5×10^6 cells were washed with PBS, resuspended in 5 ml of 4°C 70% ethyl alcohol (ETOH) and then incubated at 4°C for 30 min. The sample was washed again before the addition of 0.5 ml PBS containing 0.2 mg/ml of RNAse A. The sample was then incubated at 37°C for 15 minutes. Next, 0.5 ml propidium iodide (0.05 mg/ml in PBS) was added and incubated at 4°C in the dark for 15 min. The sample was then analyzed on the FACScan (Becton Dickinson, San Jose, CA) flow cytometer. Modfit software evaluated DNA content with an automatic module to determine the fraction of cells in the cell cycle compartments.

The next assay relates to colon tumor lines. Kind of assay: Cloning assay, all colon tumor lines. Format: cell-based. As to the method:
Culture dishes were transferred to a refrigerator (4°C) for 15 min, to room temperature for 10 min, and then to culture incubators. An upper layer of 0.5 ml culture medium was applied on day 0. Cultures were stained with MTT (1 mg/ml) for visualization and imaging at multiple time intervals (day 7 and 14). Cumulative counts of colonies (diameters, >60 µm) and cumulative volumes of CFU (diameters >120 µm) were determined with an Omnicon FAS-II (Bausch & Lomb, Rochester, NY) following calibration with an Omnicon test plate 3 and polystyrene microspheres embedded in soft agar matrix. The evaluable region of each culture dish (35 contiguous fields equivalent to 51% of the cell layer culture volume) was analyzed. Selective scoring of viable cell groups was achieved by adjustment of the instrument detection threshold to exclude images of nonstained cellular material and debris. The data was analyzed with Lotus Symphony software.

“And” between values parts separate entries of the source, which are not always exact repeats. Identical values can stand only once.

Chain of RSK2 (Homo sapiens, UniProt P51812) (P51812 whole entry, species assumed, the tested form may be a part): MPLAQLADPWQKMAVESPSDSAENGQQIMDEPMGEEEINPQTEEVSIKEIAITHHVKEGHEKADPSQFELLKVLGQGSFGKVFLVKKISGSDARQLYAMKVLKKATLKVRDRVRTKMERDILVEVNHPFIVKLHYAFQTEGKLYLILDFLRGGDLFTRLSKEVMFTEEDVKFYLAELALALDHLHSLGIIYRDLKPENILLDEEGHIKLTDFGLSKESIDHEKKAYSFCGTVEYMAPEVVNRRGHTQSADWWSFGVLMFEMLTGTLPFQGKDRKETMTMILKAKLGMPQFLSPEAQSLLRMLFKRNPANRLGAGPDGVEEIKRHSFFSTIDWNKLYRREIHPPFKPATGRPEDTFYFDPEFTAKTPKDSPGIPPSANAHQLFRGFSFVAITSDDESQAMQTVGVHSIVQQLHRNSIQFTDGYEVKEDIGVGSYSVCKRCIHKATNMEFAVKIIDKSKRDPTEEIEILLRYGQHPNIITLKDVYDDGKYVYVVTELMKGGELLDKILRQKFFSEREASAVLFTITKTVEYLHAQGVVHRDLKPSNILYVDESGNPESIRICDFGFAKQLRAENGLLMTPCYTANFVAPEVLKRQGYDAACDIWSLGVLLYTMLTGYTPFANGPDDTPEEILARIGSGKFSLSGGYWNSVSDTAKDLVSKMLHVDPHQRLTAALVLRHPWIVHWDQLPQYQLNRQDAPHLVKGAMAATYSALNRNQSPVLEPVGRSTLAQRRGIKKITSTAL

Regarding `Cc1cc(Nc2ncc3c(n2)N(C)C(=O)N(c2cc(NC(=O)c4cccc(C(F)(F)F)c4)ccc2C)C3)n(C)n1` [SC-1], the EC50 (in general, the concentration at which the effect is half-maximal) on RSK2 [1] came out at 2500 ± 1800 nM. The Tumorigenicity result with HT29 [2] (HT29, summary of SC-1 effects) was “Y”; in the assay with COLO 205 [3] (COLO 205, summary of SC-1 effects), “Y”. The Tumor take rate in the assay on HT29 [2] (HT29 treated 5 days with 0.1 µM SC-1, 100 cells inoculated s.c.) is 2 of 5 and 2/5; with HT29 [2] (HT29 treated 5 days with 0.1 µM SC-1, 1000 cells inoculated s.c.), 3/5@; with HT29 [2] (HT29 treated 5 days with 0.1 µM SC-1, 10000 cells inoculated s.c.), 5/5; in the assay with COLO 205 [3] (COLO 205 treated 5 days with 0.1 µM SC-1, 100 cells inoculated s.c.), 0/5; in the assay with COLO 205 [3] (COLO 205 treated 5 days with 0.1 µM SC-1, 1000 cells inoculated s.c.), 1/5; in the assay with COLO 205 [3] (COLO 205 treated 5 days with 0.1 µM SC-1, 10000 cells inoculated s.c.) it was 4 of 5 and 4/5. The “Calculated Time to 1000 mg Tumor Volume” value was 32 days in the assay with HT29 [2] (HT29 treated 5 days with 0.1 µM SC-1, 10,000 cells/inoculum, extrapolated from fitted line) and 101 days in the assay on COLO 205 [3] (COLO 205 treated 5 days with 0.1 µM SC-1, 10,000 cells/inoculum, extrapolated from fitted line). Further, the Sphere formation entry with HT29 [4] (0.1 µM SC-1, 5% FBS, 24 hrs) is listed as “uniform nonadherent spheres with well-defined borders formed”; in the assay on HT29 [4] (summary of SC-1 effects), “Y”; in the assay on COLO 205 [5] (0.1 µM SC-1, 5% FBS) it was “sphere formation occurred in a fraction”; with COLO 205 [5] (summary of SC-1 effects) it was “Y”; in the assay on HCT-116 [6] (0.1 µM SC-1, 5% FBS, 24 hrs), “uniform nonadherent spheres with well-defined borders formed”; with HCT-116 [6] (summary of SC-1 effects), “Y”. In addition, the “Decrease of RSK2 protein levels” value in the assay with RSK2 [7] is listed as 33%. In the assay on HCT-116 [8], the “Distribution of cell population across the cell cycle vs control” value is “no difference”. Further, the “Cloning efficiency, all tumor lines” value with colon tumor lines (assay conducted using Matrigel instead of soft agar (data not shown)) was “increased cloning efficiency”. The “Tumor lines with statistically significant increases in cumulative colony forming unit (CFU) mass” value in the assay with colon tumor lines (soft agar, 0.1 µM SC-1 for five days, vs control treated cells) was 5/7.
